In patent US12662480B2, “Microbiocidal derivatives” (SYNGENTA CROP PROTECTION AG, priority 2020, dated 2026) one finds pest or weed control data, which are given here for ten compounds.

Where only a bound is given, the exact number is not on record here.

In experiment [1] the test system is Puccinia recondita f. sp. tritici. Nature of the experiment: Puccinia recondita f. sp. tritici / wheat / leaf disc curative (brown rust). It is filed as in vivo. The note with it: foliar, 24 h, wheat leaf segments cv. Kanzler, compound applied 1 day after inoculation, compared to untreated control. The protocol:
Example B9: Puccinia recondita f. Sp. Tritici/Wheat/Leaf Disc Curative (Brown Rust) Wheat leaf segments cv. Kanzler are placed on agar in multiwell plates (24-well format). The leaf segments are inoculated with a spore suspension of the fungus. Plates are stored in darkness at 19° C. and 75% rh. The formulated test compound diluted in water is applied 1 day after inoculation. The leaf segments are incubated at 19° C. and 75% rh under a light regime of 12 h light/12 h darkness in a climate cabinet and the activity of a compound is assessed as percent disease control compared to untreated when an appropriate level of disease damage appears in untreated check leaf segments (6-8 days after application). […] […]-9, and P-11.

Experiment [2] has the same test system. Nature of the experiment: Puccinia recondita f. sp. tritici / wheat / leaf disc preventative (brown rust). It is filed as in vivo. The note with it: foliar, wheat leaf segments cv. Kanzler, inoculated 1 day after application, compared to untreated control. The protocol:
Example B10: Puccinia recondita f. Sp. Tritici/Wheat/Leaf Disc Preventative (Brown Rust) Wheat leaf segments cv. Kanzler are placed on agar in multiwell plates (24-well format) and sprayed with the formulated test compound diluted in water. The leaf disks are inoculated with a spore suspension of the fungus 1 day after application. The inoculated leaf segments are incubated at 19° C. and 75% rh under a light regime of 12 h light/12 h darkness in a climate cabinet and the activity of a compound is assessed as percent disease control compared to untreated when an appropriate level of disease damage appears in untreated check leaf segments (7-9 days after application). […] […]-10, and P-11.

What is called pest or weed control is the degree to which the test organism was suppressed or injured, in per cent. Read a high pest or weed control as a strong effect. As for `Cc1sc(N(C(=O)C2CCOC2)c2cc(F)nc(F)c2)nc1C(=O)N(C(=O)C1CCOC1)C1CCC1(C)C` (stereo not drawn) [Compound P-1, 2-[(2,6-difluoro-4-pyridyl)-(tetrahydrofuran-3-carbonyl)amino]-N-(2,2-dimethylcyclobutyl)-5-methyl-N-(tetrahydrofuran-3-carbonyl)thiazole-4-carboxamide], the pest or weed control at 200 ppm in experiment [1] and in experiment [2] was no less than 80% each time.
Take `Cc1sc(N(C(=O)C2CCCO2)c2cc(F)nc(F)c2)nc1C(=O)NC1CCC1(C)C` (stereo not drawn) [Compound P-2, 2-[(2,6-difluoro-4-pyridyl)-(tetrahydrofuran-2-carbonyl)amino]-N-(2,2-dimethylcyclobutyl)-5-methyl-thiazole-4-carboxamide]: the pest or weed control at 200 ppm in experiment [1] and in experiment [2] was no less than 80% throughout.
`Cc1sc(N(C(=O)C2CCOC2)c2cc(F)nc(F)c2)nc1C(=O)NC1CCC1(C)C` (stereo not drawn) [Compound P-3, 2-[(2,6-difluoro-4-pyridyl)-(tetrahydrofuran-3-carbonyl)amino]-N-(2,2-dimethylcyclobutyl)-5-methyl-thiazole-4-carboxamide]: the pest or weed control at 200 ppm in experiment [1] and in experiment [2] was no less than 80% in each case.
For the compound `Cc1sc(N(C(=O)C2COC2)c2cc(F)nc(F)c2)nc1C(=O)NC1CCC1(C)C` (stereo not drawn) [Compound P-4, 2-[(2,6-difluoro-4-pyridyl)-(oxetane-3-carbonyl)amino]-N-(2,2-dimethylcyclobutyl)-5-methyl-thiazole-4-carboxamide], the pest or weed control at 200 ppm in experiment [1] and in experiment [2] was no less than 80% each time.
Regarding `Cc1sc(N(C(=O)C(C)OC(C)(C)C)c2cc(F)nc(F)c2)nc1C(=O)NC1CCC1(C)C` (stereo not drawn) [Compound P-5, 2-[2-tert-butoxypropanoyl-(2,6-difluoro-4-pyridyl)amino]-N-(2,2-dimethylcyclobutyl)-5-methyl-thiazole-4-carboxamide], the pest or weed control at 200 ppm in experiment [1] and in experiment [2] was no less than 80% throughout.
Regarding `Cc1sc(N(C(=O)C(C)OC(C)C)c2cc(F)nc(F)c2)nc1C(=O)NC1CCC1(C)C` (stereo not drawn) [Compound P-6, 2-[(2,6-difluoro-4-pyridyl)-(2-isopropoxypropanoyl)amino]-N-(2,2-dimethylcyclobutyl)-5-methyl-thiazole-4-carboxamide], the pest or weed control at 200 ppm in experiment [1] and in experiment [2] was no less than 80% each time.
The compound `Cc1sc(N(C(=O)COC(C)(C)C)c2cc(F)nc(F)c2)nc1C(=O)NC1CCC1(C)C` (stereo not drawn) [Compound P-7, 2-[(2-tert-butoxyacetyl)-(2,6-difluoro-4-pyridyl)amino]-N-(2,2-dimethylcyclobutyl)-5-methyl-thiazole-4-carboxamide] returned a pest or weed control at 200 ppm in experiment [2] of no less than 80%.
In the case of `COC(C)C(=O)N(c1cc(F)nc(F)c1)c1nc(C(=O)NC2CCC2(C)C)c(C)s1` (stereo not drawn) [Compound P-9, 2-[(2,6-difluoro-4-pyridyl)-(2-methoxypropanoyl)amino]-N-(2,2-dimethylcyclobutyl)-5-methyl-thiazole-4-carboxamide], the pest or weed control at 200 ppm in experiment [1] and in experiment [2] was no less than 80% each time.
Turning to `Cc1sc(N(C(=O)C(C)S(C)(=O)=O)c2cc(F)nc(F)c2)nc1C(=O)NC1CCC1(C)C` (stereo not drawn) [Compound P-10, 2-[(2,6-difluoro-4-pyridyl)-(2-methylsulfonylpropanoyl)amino]-N-(2,2-dimethylcyclobutyl)-5-methyl-thiazole-4-carboxamide], the pest or weed control at 200 ppm in experiment [2] was no less than 80%.
For `Cc1sc(N(C(=O)C2CCOCC2)c2cc(F)nc(F)c2)nc1C(=O)NC1CCC1(C)C` (stereo not drawn) [Compound P-11, 2-[(2,6-difluoro-4-pyridyl)-(tetrahydropyran-4-carbonyl)amino]-N-(2,2-dimethylcyclobutyl)-5-methyl-thiazole-4-carboxamide], the pest or weed control at 200 ppm in experiment [1] and in experiment [2] was no less than 80% in each case.
